Test results: BindingDB's records for patent US10428104 (Pfizer Inc., 2019)

Biological target: Protein arginine N-methyltransferase 5 (Homo sapiens, UniProt O14744)
Assay: PRMT5 assay
Method: Following dilution, 1 ul was added to an empty 96-well microtiter plate. PRMT5/MEP50 protein complex was combined with H4(1-21) peptide ([…]) in PRMT5 assay buffer (50 mM Tris pH 8.5, 50 mM NaCl, 5 mM MgCl2, 1 mM EDTA, 1 mM TCEP) and 44 ul was added to the microtiter plate containing compound. S-Adenosyl-L-methionine (SAM) was prepared by combining 3H labelled SAM with unlabelled SAM in PRMT5 assay buffer such that the final SAM concentration was 10 uM and the specific activity was 0.2 uCi/ul. The reaction was initiated by adding 5 ul of SAM stock to the microtiter plate. The final reaction conditions were 10 nM PRMT5/MEP50 complex, 200 nM peptide and 1 uM SAM. Following a 25 minute incubation at room temperature, the reaction was stopped with the addition of 100 uL of 20% TCA. The 3H-peptide product was captured using a 96-well filter plate (MSIPN4B, Millipore) and washed 5 times with PBS buffer. Scintillation fluid (100 ul) was added to the dried filter plate and counted in a liquid scintillation counter. IC50 values were determined by fitting the data to the standard 4-parameter dose response equation using Pfizer proprietary software.

Protein arginine N-methyltransferase 5, sequence (O14744 whole entry): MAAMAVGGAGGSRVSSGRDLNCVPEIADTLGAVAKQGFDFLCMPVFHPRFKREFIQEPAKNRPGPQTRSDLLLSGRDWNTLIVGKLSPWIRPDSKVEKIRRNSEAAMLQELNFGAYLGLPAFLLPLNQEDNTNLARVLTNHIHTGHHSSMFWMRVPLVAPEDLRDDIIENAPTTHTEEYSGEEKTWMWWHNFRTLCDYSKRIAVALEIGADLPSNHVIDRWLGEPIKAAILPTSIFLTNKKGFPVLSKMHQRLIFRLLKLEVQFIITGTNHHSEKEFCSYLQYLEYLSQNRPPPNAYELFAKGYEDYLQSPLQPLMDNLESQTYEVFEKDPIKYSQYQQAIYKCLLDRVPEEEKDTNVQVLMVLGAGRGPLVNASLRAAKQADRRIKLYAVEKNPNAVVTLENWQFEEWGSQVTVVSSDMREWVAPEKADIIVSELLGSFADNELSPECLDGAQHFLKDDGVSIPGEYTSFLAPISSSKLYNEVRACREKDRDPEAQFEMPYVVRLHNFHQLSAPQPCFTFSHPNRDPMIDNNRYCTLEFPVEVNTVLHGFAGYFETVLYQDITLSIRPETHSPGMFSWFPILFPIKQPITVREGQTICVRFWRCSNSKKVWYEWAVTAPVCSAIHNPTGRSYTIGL

| IC50 [nM] | SMILES |
| --- | --- |
| 50 | Cc1ncnc2c1ccn2[C@@H]1O[C@H]([C@H](O)c2cnn(C)c2)[C@@H](O)[C@H]1O [US10428104, Example 50] |
| 14700 | Cc1ncnc2c1ccn2[C@@H]1O[C@H]([C@@H](O)c2cnn(C)c2)[C@@H](O)[C@H]1O [US10428104, Example 51] |
| 150 | Cc1ncnc2c1ccn2[C@@H]1O[C@H]([C@H](O)c2cccc3cc[nH]c23)[C@@H](O)[C@H]1O [US10428104, Example 82] |
